Assay results from patent EP2161278B1, “Single-chain coiled coil scaffold” (Complix N.V., priority 2008, dated 2010).
Peptide text beside a SMILES is read from it.

assay: Thermal denaturation of trimeric coiled coil peptides by CD thermal scan (signal at 222 nm versus temperature, curve fitting); format: physicochemical; conditions: core mutants at positions 3a and 3d of the reference peptide with glutamine at 2a; Figure 9
Procedure: The said synthesized peptide was dissolved at a concentration of 292 microM in 20 mM phosphate buffer (PBS), 150 mM NaCl, pH 7.2. The CD spectra were measured between […], at 5 and 90 degrees Celsius (Figure 3). The spectrum at 5 degrees Celsius was indicative of a high alpha-helical secondary structure content, in agreement with the expectation that all heptad regions, but not all of the flanking residues, would assemble as alpha-helical coiled coils.
To analyse whether the temperature-induced transition between helical and nonhelical states was reversible, a forward (up) and backward (down) thermal scan was performed on the same sample, by recording the CD signal at […] as a function of temperature at a scanning rate of about 1 degree Celsius per minute (Figure 4). It was observed that the up and down scans almost perfectly coincided, thereby confirming the quantitative unfolding and refolding of the peptides in the sample.
It was further analyzed whether the thermal unfolding curve of Figure 4 conformed to the thermodynamic equations describing the equilibrium folding/unfolding reaction between three molecules free (monomeric) peptide and one entity of folded (trimeric) complex. This reaction is generally written as 3 peptide <=> peptide3 wherein "<=>" refers to a chemical equilibrium, "peptide" to a monomeric peptide in solution and "peptide3" to a trimeric entity in the folded (assembled, associated) state. This thermal unfolding curve was fitted to the theoretic equations: θ(T) = θM (T) + (θT(T)-θM(T))(1+root(F(-(1)/(2)+sqrt((1)/(4) + (F)/(27))), 3)+root(F(-(1)/(2)-sqrt((1)/(4) + (F)/(27))), 3)) [formula] wherein F = (exp(-(ΔHt)/(RT)(1-T/T1)-(ΔCp)/(RT)(T-Tt-Tln(T/Tt))))/(4) [formula] and T≡ the temperature, in degrees Kelvin, of the sample θ(T)≡ the CD-signal [theta]222 nm, in deg cm^2 dmol^-1, as a function of T θM(T)≡ the CD-signal for 100% free (monomeric) peptide as a function of T θT(T) ≡ the CD-signal for 100% associated (trimeric) peptide as a function of T Tt ≡ the transition temperature, where 50% of the total peptide concentration is associated ΔHt ≡ the enthalpy difference, in kJ per mole peptide, between mono- and trimeric states ΔCp ≡ the heat capacity difference, in J mol^-1 K^-1, between mono- and trimeric states R ≡ the ideal (universal) gas constant ≡ 8.31 J mol^-1 K^-1
The global CD signal was somewhat lower than expected, which could be due to an instrumental deviation, an error in the concentration determination, a lower purity, or a lower than expected alpha-helical content. Nevertheless, the main goal of this experiment was to examine the effect of the glutamine-to-isoleucine mutant on the stability of the complex. […] The estimated transition temperature was around 97 degrees Celsius, although the latter was difficult to determine because of incompleteness of the transition.
All ten peptides were analyzed by thermal CD scanning as in Examples 3 and 4. Fitting of the thermal denaturation curves, as described in Example 3, gave the corresponding transition temperatures shown in Figure 9. […]

Row | Compound | effect of core substitution on stability (transition temperature) compared to the reference peptide comprising isoleucine at positions 3a and 3d
1 | CC[C@H](C)[C@H](NC(=O)[C@H](C)NC(=O)[C@H](C)NC(=O)[C@H](CCC(N)=O)NC(=O)[C@H](CCC(N)=O)NC(=O)[C@H](CCCCN)NC(=O)[C@H](CCC(N)=O)NC(=O)[C@@H](NC(=O)[C@H](CCC(=O)O)NC(=O)[C@H](CCC(=O)O)NC(=O)[C@@H](NC(=O)[C@H](CO)NC(=O)[C@H](CCSC)NC(C)=O)[C@@H](C)CC)[C@@H](C)CC)C(=O)N[C@@H](CCC(N)=O)C(=O)N[C@@H](CCCCN)C(=O)N[C@@H](CCC(N)=O)C(=O)N[C@@H](C)C(=O)N[C@@H](C)C(=O)N[C@@H](C)C(=O)N[C@H](C(=O)N[C@@H](CCC(N)=O)C(=O)N[C@@H](CCCCN)C(=O)N[C@@H](CCC(N)=O)C(=O)N[C@H](C(=O)N[C@@H](Cc1ccc(O)cc1)C(=O)N[C@@H](CCCNC(=N)N)C(=O)N[C@@H](CCSC)C(=O)N[C@H](C(=O)N1CCC[C@H]1C(N)=O)[C@@H](C)O)[C@@H](C)CC)[C@@H](C)CC [3aA] (Ac-MSIEEIQKQQAAIQKQAAAIQKQIYRMTP-NH2) | disruptive
2 | CC[C@H](C)[C@H](NC(=O)[C@H](C)NC(=O)[C@H](C)NC(=O)[C@H](CCC(N)=O)NC(=O)[C@H](CCC(N)=O)NC(=O)[C@H](CCCCN)NC(=O)[C@H](CCC(N)=O)NC(=O)[C@@H](NC(=O)[C@H](CCC(=O)O)NC(=O)[C@H](CCC(=O)O)NC(=O)[C@@H](NC(=O)[C@H](CO)NC(=O)[C@H](CCSC)NC(C)=O)[C@@H](C)CC)[C@@H](C)CC)C(=O)N[C@@H](CCC(N)=O)C(=O)N[C@@H](CCCCN)C(=O)N[C@@H](CCC(N)=O)C(=O)N[C@@H](CO)C(=O)N[C@@H](C)C(=O)N[C@@H](C)C(=O)N[C@H](C(=O)N[C@@H](CCC(N)=O)C(=O)N[C@@H](CCCCN)C(=O)N[C@@H](CCC(N)=O)C(=O)N[C@H](C(=O)N[C@@H](Cc1ccc(O)cc1)C(=O)N[C@@H](CCCNC(=N)N)C(=O)N[C@@H](CCSC)C(=O)N[C@H](C(=O)N1CCC[C@H]1C(N)=O)[C@@H](C)O)[C@@H](C)CC)[C@@H](C)CC [3aS] (Ac-MSIEEIQKQQAAIQKQSAAIQKQIYRMTP-NH2) | disruptive
3 | CC[C@H](C)[C@H](NC(=O)[C@H](C)NC(=O)[C@H](C)NC(=O)[C@H](CCC(N)=O)NC(=O)[C@H](CCC(N)=O)NC(=O)[C@H](CCCCN)NC(=O)[C@H](CCC(N)=O)NC(=O)[C@@H](NC(=O)[C@H](CCC(=O)O)NC(=O)[C@H](CCC(=O)O)NC(=O)[C@@H](NC(=O)[C@H](CO)NC(=O)[C@H](CCSC)NC(C)=O)[C@@H](C)CC)[C@@H](C)CC)C(=O)N[C@@H](CCC(N)=O)C(=O)N[C@@H](CCCCN)C(=O)N[C@@H](CCC(N)=O)C(=O)N[C@@H](CCC(N)=O)C(=O)N[C@@H](C)C(=O)N[C@@H](C)C(=O)N[C@H](C(=O)N[C@@H](CCC(N)=O)C(=O)N[C@@H](CCCCN)C(=O)N[C@@H](CCC(N)=O)C(=O)N[C@H](C(=O)N[C@@H](Cc1ccc(O)cc1)C(=O)N[C@@H](CCCNC(=N)N)C(=O)N[C@@H](CCSC)C(=O)N[C@H](C(=O)N1CCC[C@H]1C(N)=O)[C@@H](C)O)[C@@H](C)CC)[C@@H](C)CC [3aQ] (Ac-MSIEEIQKQQAAIQKQQAAIQKQIYRMTP-NH2) | relatively strong
4 | CC[C@H](C)[C@H](NC(=O)[C@H](C)NC(=O)[C@H](C)NC(=O)[C@H](CCC(N)=O)NC(=O)[C@H](CCC(N)=O)NC(=O)[C@H](CCCCN)NC(=O)[C@H](CCC(N)=O)NC(=O)[C@@H](NC(=O)[C@H](CCC(=O)O)NC(=O)[C@H](CCC(=O)O)NC(=O)[C@@H](NC(=O)[C@H](CO)NC(=O)[C@H](CCSC)NC(C)=O)[C@@H](C)CC)[C@@H](C)CC)C(=O)N[C@@H](CCC(N)=O)C(=O)N[C@@H](CCCCN)C(=O)N[C@@H](CCC(N)=O)C(=O)N[C@H](C(=O)N[C@@H](C)C(=O)N[C@@H](C)C(=O)N[C@@H](C)C(=O)N[C@@H](CCC(N)=O)C(=O)N[C@@H](CCCCN)C(=O)N[C@@H](CCC(N)=O)C(=O)N[C@H](C(=O)N[C@@H](Cc1ccc(O)cc1)C(=O)N[C@@H](CCCNC(=N)N)C(=O)N[C@@H](CCSC)C(=O)N[C@H](C(=O)N1CCC[C@H]1C(N)=O)[C@@H](C)O)[C@@H](C)CC)[C@@H](C)CC [3dA] (Ac-MSIEEIQKQQAAIQKQIAAAQKQIYRMTP-NH2) | relatively strong
5 | CC[C@H](C)[C@H](NC(=O)[C@H](C)NC(=O)[C@H](C)NC(=O)[C@H](CCC(N)=O)NC(=O)[C@H](CCC(N)=O)NC(=O)[C@H](CCCCN)NC(=O)[C@H](CCC(N)=O)NC(=O)[C@@H](NC(=O)[C@H](CCC(=O)O)NC(=O)[C@H](CCC(=O)O)NC(=O)[C@@H](NC(=O)[C@H](CO)NC(=O)[C@H](CCSC)NC(C)=O)[C@@H](C)CC)[C@@H](C)CC)C(=O)N[C@@H](CCC(N)=O)C(=O)N[C@@H](CCCCN)C(=O)N[C@@H](CCC(N)=O)C(=O)N[C@H](C(=O)N[C@@H](C)C(=O)N[C@@H](C)C(=O)N[C@H](C(=O)N[C@@H](CCC(N)=O)C(=O)N[C@@H](CCCCN)C(=O)N[C@@H](CCC(N)=O)C(=O)N[C@H](C(=O)N[C@@H](Cc1ccc(O)cc1)C(=O)N[C@@H](CCCNC(=N)N)C(=O)N[C@@H](CCSC)C(=O)N[C@H](C(=O)N1CCC[C@H]1C(N)=O)[C@@H](C)O)[C@@H](C)CC)[C@@H](C)CC)C(C)C [3aV] (Ac-MSIEEIQKQQAAIQKQVAAIQKQIYRMTP-NH2) | moderately
